Series [1] concerns HIV-1. Conditions: for IC50: dose achieving 50% protection of HIV-infected MT-4 cells, MTT, OD 540 nm; for SI: selectivity index, ratio of CC50 to IC50.
Description: A rapid, sensitive and automated assay procedure was used for the in vitro evaluation of anti-HIV agents. […] Inhibition of the HIV-induced cytopathic effect was used as the end point. The viability of both HIV- and mock-infected cells was assessed spectrophotometrically via the in situ reduction of 3-(4,5-dimethylthiazol-2-yl)-2,5-diphenyltetrazolium bromide (MTT). […] The percent protection achieved by the compound in HIV-infected cells was calculated by the following formula:
[formula] expressed in %, whereby (ODT)HIV is the optical density measured with a given concentration of the test compound in HIV-infected cells; (ODC)HIV is the optical density measured for the control untreated HIV-infected cells; (ODC)MOCK is the optical density measured for the control untreated mock-infected cells; all optical density values were determined at 540 nm. […] The ratio of CC50 to IC50 was defined as the selectivity index (SI).
Series [2] has as its system mock-infected MT-4 cells. In words: Cytotoxicity in mock-infected MT-4 cells (MTT). The class given is cell-based. Conditions: concentration reducing absorbance of mock-infected MT-4 control by 50%.

A word on the IC50: it is the concentration at which inhibition is half-maximal. Lower therefore signals greater potency in that assay. By CC50 is commonly meant the concentration giving 50% cytotoxicity. Lower therefore signals greater toxicity to the cells.

In the case of `Cc1cc(C)cc(Oc2c(C=CC#N)c(C)[nH]c(=O)c2I)c1` [compound 140], in series [1], half-maximal inhibition (IC50) required 6.3 nM and the SI was over 1585. The same compound displayed a CC50 in series [2] of over 10 µM.
As for `CON=Cc1c(C)[nH]c(=O)c(I)c1Sc1cc(C)cc(C)c1` [compound 46], in series [1], the IC50 stood at 2 nM and the SI is given as over 50119. This compound displayed a CC50 in series [2] of over 100 µM.
`CCc1c(C)[nH]c(=O)c(I)c1Cc1cccc(C)c1` [compound 286]: in series [1], the IC50 is 2.5 nM and the SI was over 12589. The compound also registered a CC50 in series [2] of over 32 µM.
The like results for `CON=Cc1c(C)[nH]c(=O)c(I)c1Oc1cc(C)cc(C)c1` [compound 232] were, in that order, 6.3 nM, over 5012 and over 32 µM.
Taken in the same sequence, the figures for `CCc1c(COC(N)=O)[nH]c(=O)c(I)c1Oc1cc(C)cc(C)c1` [compound 105] were 2 nM, over 5012 and over 10 µM.
Turning to `COCCOCc1c(C)[nH]c(=O)c(I)c1Oc1cc(C)cc(C)c1` [compound 253], in series [1], the IC50 is 1.6 nM and the SI is reported as over 6310. Moreover, in series [2], the CC50 was over 10 µM.
Taken in the same sequence, the figures for `Cc1cc(C)cc(Sc2c(/C=N/OCc3ccccc3)c(C)[nH]c(=O)c2I)c1` [compound 31] were 7.9 nM, over 12589 and over 100 µM.
Taken in the same sequence, the figures for `CCOCc1c[nH]c(=O)c(I)c1Oc1cc(C)cc(C)c1` [compound 256] were 2 nM, over 5012 and over 10 µM.
The like results for `Cc1cc(C)cc(Sc2c(CSCc3cccs3)c(C)[nH]c(=O)c2I)c1` [compound 8] were, in that order, 10 nM, over 10000 and over 100 µM.
Take `CCc1c(C)[nH]c(=O)c(I)c1Oc1cccc(Br)c1` [compound 307]: in series [1], the IC50 was 5 nM and the SI is listed as over 6310. For the same compound, the CC50 in series [2] was over 32 µM.
The like results for `Cc1cc(C)cc(Oc2c(COCc3ccccc3)c(C)[nH]c(=O)c2I)c1` [compound 245] were, in that order, 6.3 nM, over 15849 and over 100 µM.
Taken in the same sequence, the figures for `CCc1c(C)[nH]c(=O)c(I)c1Oc1cccc(C=O)c1` [compound 321] were 6.3 nM, over 15849 and over 100 µM.
Regarding `Cc1cc(C)cc(Oc2c(CNC=O)c(C)[nH]c(=O)c2I)c1` [compound 219], in series [1], the IC50 is 10 nM and the SI is recorded as over 3162. Besides, in series [2], the CC50 was over 32 µM.
With `CC(=O)c1ccc(N2CCN(Cc3c(C)[nH]c(=O)c(I)c3Oc3cc(C)cc(C)c3)CC2)cc1` [compound 694], in series [1], the IC50 amounted to 10 nM. Moreover, in series [2], the CC50 came out at 63 µM.
Regarding `CCc1c(C)[nH]c(=O)c(Br)c1Sc1cc(C)cc(C)c1` [compound 109], in series [1], 2.5 nM corresponded to half-maximal inhibition (IC50) and the SI was 12589. In series [2], this compound gave a CC50 of 32 µM.
The like results for `CCc1c(C)[nH]c(=O)c(I)c1Oc1cccc(N)c1` [compound 121] were, in that order, 10 nM, over 10000 and over 100 µM.
The like results for `Cc1cc(C)cc(Oc2c(CN3CCN(c4ccccn4)CC3)c(C)[nH]c(=O)c2I)c1` [compound 696] were, in that order, 15.8 nM, over 2512 and over 40 µM.
Taken in the same sequence, the figures for `CCc1c(C)[nH]c(=O)c(I)c1Oc1cccc([N+](=O)[O-])c1` [compound 297] were 4 nM, over 7943 and over 32 µM.
On to `CCc1c(C)[nH]c(=O)c(Sc2ccccc2)c1Oc1cc(C)cc(C)c1` [compound 280], for which, in series [1], the IC50 was found to be 10 nM and the SI turned out to be 2512. Also, the CC50 in series [2] was found to be 25 µM.
As to `CCc1c(C)[nH]c(=O)c(I)c1Oc1cccc(/C=C/C#N)c1` [compound 319], in series [1], inhibition was half-maximal at 2 nM (IC50) and the SI is reported as over 50119. In series [2], the CC50 was over 100 µM.
Taken in the same sequence, the figures for `CCc1c(C)[nH]c(=O)c(I)c1Oc1cc(C)cc(CCl)c1` [compound 81] were 6.3 nM, 1995 and 13 µM.
Taken in the same sequence, the figures for `Cc1cc(C)cc(Oc2c(Cn3ccnn3)c(C)[nH]c(=O)c2I)c1` [compound 713] were 2.5 nM, over 39811 and over 100 µM.
Taken in the same sequence, the figures for `Cc1cccc(Sc2c3c([nH]c(=O)c2I)CCCC3)c1` [compound 222] were 7.9 nM, 251 and 2 µM.
In the case of `CCc1c(CCCO)[nH]c(=O)c(I)c1Oc1cc(C)cc(C)c1` [compound 217], in series [1], the IC50 stood at 6.3 nM and the SI is on record as over 1585. Moreover, in series [2], the CC50 was over 10 µM.
The like results for `CCc1c(C)[nH]c(=O)c(I)c1Oc1cccc(C)c1` [compound 306] were, in that order, 1.6 nM, over 19953 and over 32 µM.
Regarding `COc1ccccc1Cc1c(C)[nH]c(=O)c(I)c1Oc1cc(C)cc(C)c1` [compound 249], in series [1], 1.3 nM corresponded to half-maximal inhibition (IC50) and the SI is given as over 25119. This compound also had a CC50 in series [2] of over 32 µM.
In the case of `CCc1c(C)[nH]c(=O)c(I)c1Oc1cccc(C=CC=NO)c1` [compound 309], in series [1], inhibition was half-maximal at 6.3 nM (IC50) and the SI is 1585. In series [2], this compound had a CC50 of 10 µM.
`Cc1cc(C)cc(Oc2c(CNC(=O)c3cc4ccccc4o3)c(C)[nH]c(=O)c2I)c1` [compound 143]: in series [1], half-maximal inhibition (IC50) was put at 6.3 nM and the SI is on record as over 1585. In addition, in series [2], the CC50 is over 10 µM.
Turning to `Cc1cc(C)cc(Oc2c(CCCO)c(C)[nH]c(=O)c2I)c1` [compound 242], in series [1], the midpoint of inhibition, the IC50, lay at 0.6 nM and the SI is on record as over 158489. In series [2], this compound registered a CC50 of over 100 µM.
With `Cc1cc(C)cc(Oc2c(CSCc3ccco3)c(C)[nH]c(=O)c2I)c1` [compound 375], in series [1], it took 1.3 nM to reach half-maximal inhibition (IC50) and the SI is recorded as over 79433. In series [2], this compound came in with a CC50 of over 100 µM.
As for `CCc1c(C)[nH]c(=O)c(I)c1Oc1cc(C)cc(/C=C/C#N)c1` [compound 83], in series [1], half-maximal inhibition (IC50) was put at 2.5 nM and the SI was 3162. For the same compound, the CC50 in series [2] turned out to be 8 µM.
`Cc1cc(C)cc(Oc2c(COCCO)c(C)[nH]c(=O)c2I)c1` [compound 254]: in series [1], the IC50 was 2 nM and the SI was over 15849. Moreover, the CC50 in series [2] is over 32 µM.
`CCc1c(C)[nH]c(=O)c(I)c1Oc1cccc(/C=C/C=C/C#N)c1` [compound 299]: in series [1], the IC50 is 2.5 nM and the SI is reported as 32.
As for `CCc1c(C)[nH]c(=O)c(Br)c1Oc1cc(C)cc(C)c1` [compound 284], in series [1], the IC50 stood at 2 nM and the SI is given as over 5012. In series [2], the CC50 is over 10 µM.
The like results for `Cc1cc(C)cc(Oc2c(CCO)c(C)[nH]c(=O)c2I)c1` [compound 241] were, in that order, 1.6 nM, over 63096 and over 100 µM.
Taken in the same sequence, the figures for `C=Cc1cccc(Oc2c(CC)c(C)[nH]c(=O)c2I)c1` [compound 296] were 2 nM, 12589 and 25 µM.
As to `CCc1c(C)[nH]c(=O)c(I)c1Oc1ccccc1` [compound 328], in series [1], the midpoint of inhibition, the IC50, lay at 1.6 nM and the SI is over 63096. The CC50 in series [2] is over 100 µM.
Taken in the same sequence, the figures for `Cc1cc(C)cc(Oc2c(CN3CCN(C(=O)c4ccco4)CC3)c(C)[nH]c(=O)c2I)c1` [compound 700] were 7.9 nM, over 1000 and over 8 µM.
Taken in the same sequence, the figures for `CCOC(=O)CSCc1c(C)[nH]c(=O)c(I)c1Oc1cc(C)cc(C)c1` [compound 99] were 10 nM, over 10000 and over 100 µM.
The like results for `CCc1c(C)[nH]c(=O)c(OC)c1Oc1cc(C)cc(C)c1` [compound 277] were, in that order, 2.5 nM, over 39811 and over 100 µM.
On to `CCc1c(C)[nH]c(=O)c(C2CC2)c1Oc1cc(C)cc(C)c1` [compound 230], for which, in series [1], 6.3 nM corresponded to half-maximal inhibition (IC50) and the SI worked out at 1259. This compound also displayed a CC50 in series [2] of 8 µM.
Taken in the same sequence, the figures for `COCCc1c(C)[nH]c(=O)c(I)c1Oc1cc(C)cc(C)c1` [compound 264] were 1 nM, over 10000 and over 10 µM.
`CCc1c(C)[nH]c(=O)c(SC)c1Oc1cc(C)cc(C)c1` [compound 272]: in series [1], the IC50 amounted to 2 nM and the SI came out at 12589. The compound also came in with a CC50 in series [2] of 25 µM.
Taken in the same sequence, the figures for `CCc1c(C)[nH]c(=O)c(I)c1Oc1cc(C)cc(/C=C/C#N)c1` [compound 551] were 1 nM, 12589 and 13 µM.
The like results for `CCc1c(C)[nH]c(=O)c(I)c1Oc1cc(/C(C)=C/C#N)cc(/C(C)=C/C#N)c1` [compound 684] were, in that order, 0.8 nM, over 125893 and over 100 µM.
For the compound `Cc1cc(C)cc(Sc2c(Cn3ccnc3)c(C)[nH]c(=O)c2I)c1` [compound 606], in series [1], the IC50 amounted to 1.3 nM and the SI turned out to be 15849. Also, the CC50 in series [2] is 20 µM.
Turning to `CCOC(=O)NCc1c(C)[nH]c(=O)c(I)c1Oc1cc(C)cc(C)c1` [compound 218], in series [1], the midpoint of inhibition, the IC50, lay at 7.9 nM and the SI is on record as over 1259. The CC50 in series [2] is over 10 µM.
Taken in the same sequence, the figures for `CCc1c(C)[nH]c(=O)c(I)c1Sc1cc(Cl)cc(Cl)c1` [compound 115] were 2.5 nM, 3162 and 8 µM.
The like results for `Cc1cccc(Sc2c3c([nH]c(=O)c2I)CCCCC3)c1` [compound 221] were, in that order, 6.3 nM, over 3162 and over 20 µM.
Take `CCc1c[nH]c(=O)c(I)c1Oc1cccc(C)c1` [compound 314]: in series [1], half-maximal inhibition (IC50) was put at 7.9 nM and the SI is given as over 3981. Further, the CC50 in series [2] was over 32 µM.
